Data: patent US6638943B2 (The University of Tennessee Research Foundation, priority 2001, dated 2003)
Like-named read-outs stand apart in the source and are kept apart here.

How the values were obtained:
[1] = biological target: T1, human α2c-AR (Homo sapiens, UniProt P18825); assay: [3H]Rauwolscine equilibrium competition binding, human α2c-AR expressed in CHO cells
T1 construct: expressed in transfected cells
T1 sequence (P18825 1-462): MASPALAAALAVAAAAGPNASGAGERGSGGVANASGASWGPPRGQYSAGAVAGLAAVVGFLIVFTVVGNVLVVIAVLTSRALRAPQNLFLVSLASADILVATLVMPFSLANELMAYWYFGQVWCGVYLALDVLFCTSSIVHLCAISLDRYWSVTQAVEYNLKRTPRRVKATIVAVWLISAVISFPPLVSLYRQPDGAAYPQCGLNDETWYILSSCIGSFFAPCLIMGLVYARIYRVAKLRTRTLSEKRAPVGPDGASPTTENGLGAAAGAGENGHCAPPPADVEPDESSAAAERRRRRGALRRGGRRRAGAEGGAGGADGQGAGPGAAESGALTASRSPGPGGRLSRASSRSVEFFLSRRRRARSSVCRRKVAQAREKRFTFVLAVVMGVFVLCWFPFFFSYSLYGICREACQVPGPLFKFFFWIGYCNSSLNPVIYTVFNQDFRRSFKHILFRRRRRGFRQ

[2] = test system: cremaster muscle arterioles (A3-A4 resistance vessels); assay: Intravital microscopy of mouse cremaster muscle arterioles; assay type: in vivo, male C57-BL mice; conditions: 37° C., systemic administration via femoral vein, n=6
Experimental: Male C57-BL mice age 7-8 weeks and weighing approximately 20 g were used for the study. Prior to surgery animals were anesthetized with an i.m. injection of […] of Ketaset (87 mg ketamine/mL+13 mg xylazine/mL). Body temperature was maintained at ˜37° C. by convective heating. The animal was supinated and a midline incision was made in the ventro-cervical region and the underlying tissues bisected laterally to expose the trachea. A tracheotomy was performed and the animal intubated directly with PE50 tubing to facilitate ventilation, and the wound closed. The left rear limb was incised to expose the femoral neurovascular bundle, and the femoral vein isolated and catheterized with PE10 tubing attached to a syringe of normal saline. […]. […]
All experiments were carried out using an industrial grade microscope (Nikon MM-11) with two light sources, bright field (Opti-Quip 75 W xenon) and fluorescent (Nikon 150 W mercury). […] Experiments are viewed on a video monitor and recorded on digital tapes for off-line processing. The video images are analyzed off-line using the MetaMorph software (Universal Imaging Co.) on a Dell Optiplex GX-1. […]
The prepared animal was placed on the stage of the microscope on either the surgery board with the translumination window or on a stereotaxic frame. […] The blood pressure was monitored with a Kent Scientific XBP-1000 unit.

[3] = biological target: T2, human α2a-AR (Homo sapiens, UniProt P08913); assay: [3H]Rauwolscine equilibrium competition binding, human α2a-AR expressed in CHO cells; conditions: for Ki: human α2a-AR in CHO cells; for α2a/α2b Selectivity = Ki(α2b)/Ki(α2a): Table 1, ratio of Ki values
T2 construct: expressed in transfected cells
T2 sequence (P08913 1-465): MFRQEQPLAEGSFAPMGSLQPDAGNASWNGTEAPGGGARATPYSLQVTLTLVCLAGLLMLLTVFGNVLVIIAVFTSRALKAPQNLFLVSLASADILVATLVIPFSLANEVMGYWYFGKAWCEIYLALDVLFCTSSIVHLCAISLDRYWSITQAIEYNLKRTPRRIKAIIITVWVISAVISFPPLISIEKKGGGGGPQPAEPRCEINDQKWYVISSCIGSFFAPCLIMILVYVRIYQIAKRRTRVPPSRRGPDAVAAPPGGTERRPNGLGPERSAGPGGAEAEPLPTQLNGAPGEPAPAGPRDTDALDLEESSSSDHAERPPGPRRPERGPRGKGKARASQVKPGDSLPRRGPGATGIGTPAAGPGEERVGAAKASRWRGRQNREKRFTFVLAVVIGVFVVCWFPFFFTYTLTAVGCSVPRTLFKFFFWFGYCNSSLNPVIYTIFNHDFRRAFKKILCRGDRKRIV

[4] = biological target: T3, human α2b-AR (Homo sapiens, UniProt P18089); assay: [3H]Rauwolscine equilibrium competition binding, human α2b-AR expressed in CHO cells
T3 construct: expressed in transfected cells
T3 sequence (P18089 1-450): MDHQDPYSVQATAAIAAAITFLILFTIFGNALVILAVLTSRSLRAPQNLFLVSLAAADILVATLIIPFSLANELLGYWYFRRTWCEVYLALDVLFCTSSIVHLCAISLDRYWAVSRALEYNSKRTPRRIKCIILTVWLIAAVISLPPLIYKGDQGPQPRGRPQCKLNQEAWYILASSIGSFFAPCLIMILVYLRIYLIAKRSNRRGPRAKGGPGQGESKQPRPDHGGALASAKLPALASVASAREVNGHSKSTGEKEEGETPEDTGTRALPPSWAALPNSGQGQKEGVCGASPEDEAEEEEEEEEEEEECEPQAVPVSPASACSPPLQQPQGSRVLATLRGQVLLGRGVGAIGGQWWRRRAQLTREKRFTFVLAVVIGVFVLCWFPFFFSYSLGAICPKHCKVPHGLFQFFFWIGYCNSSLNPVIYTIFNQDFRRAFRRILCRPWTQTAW

[5] = Table 2, mean ± SEM of n = 4-6, read-out: pKi α2a-AR (converted)
[6] = [3H]rauwolscine 2.54 nM, mean ± SEM of four to nine experiments, read-out: Ki = SEM (nM) α2a-AR
[7] = [3H]rauwolscine 2.54 nM, mean ± SEM of four to nine experiments, read-out: Ki = SEM (nM) α2b-AR
[8] = Table 2, mean ± SEM of n = 4-6, read-out: pKi α2b-AR (converted)

Structure (SMILES)	binding affinity for α2c-AR greater than on the α1-AR subtypes ([1]; from Table 3)	Ki [3, 5]	Ki [3, 6]	Ki [1]	Ki [4, 7]	α2a/α2b Selectivity = Ki(α2b)/Ki(α2a) [3]	Ki [4, 8]	increase in vessel diameter [2]
COC(=O)[C@@H]1[C@H]2C[C@H]3c4[nH]c5ccccc5c4CCN3C[C@@H]2CC[C@@H]1O [Yohimbine, reference compound]	at least 4400 fold							22.14±1.08%
O=C(NCCCCCNC(=O)[C@@H]1[C@H]2C[C@H]3c4[nH]c5ccccc5c4CCN3C[C@@H]2CC[C@@H]1O)[C@@H]1[C@H]2C[C@H]3c4[nH]c5ccccc5c4CCN3C[C@@H]2CC[C@@H]1O [Compound 3d]		6.17 nM	1.73 ± 0.26 nM	10.7 nM				
O=C(NCCNC(=O)[C@@H]1[C@H]2C[C@H]3c4[nH]c5ccccc5c4CCN3C[C@@H]2CC[C@@H]1O)[C@@H]1[C@H]2C[C@H]3c4[nH]c5ccccc5c4CCN3C[C@@H]2CC[C@@H]1O [Compound 3a]		93.3 nM	26.4 ± 7.3 nM	3.55 nM	1510 ± 262 nM		3160 nM	
O=C(NCCCCNC(=O)[C@@H]1[C@H]2C[C@H]3c4[nH]c5ccccc5c4CCN3C[C@@H]2CC[C@@H]1O)[C@@H]1[C@H]2C[C@H]3c4[nH]c5ccccc5c4CCN3C[C@@H]2CC[C@@H]1O [Compound 3c]		53.7 nM	15.3 ± 6.2 nM	8.32 nM	189 ± 38.1 nM		398 nM	
O=C(NCCCCCCNC(=O)[C@@H]1[C@H]2C[C@H]3c4[nH]c5ccccc5c4CCN3C[C@@H]2CC[C@@H]1O)[C@@H]1[C@H]2C[C@H]3c4[nH]c5ccccc5c4CCN3C[C@@H]2CC[C@@H]1O [Compound 3e]		4.47 nM	1.35 ± 0.27 nM	6.92 nM	166 ± 56.7 nM		288 nM	

Continued by falling Ki [3, 6], values first:

binding affinity for α2c-AR greater than on the α1-AR subtypes ([1]; from Table 3)	Ki [3, 5]	Ki [3, 6]	Ki [1]	Ki [4, 7]	α2a/α2b Selectivity = Ki(α2b)/Ki(α2a) [3]	Ki [4, 8]	Structure (SMILES)	increase in vessel diameter [2]
	3.09 nM	0.87 ± 0.18 nM	3.39 nM				O=C(NCCCCCCCNC(=O)[C@@H]1[C@H]2C[C@H]3c4[nH]c5ccccc5c4CCN3C[C@@H]2CC[C@@H]1O)[C@@H]1[C@H]2C[C@H]3c4[nH]c5ccccc5c4CCN3C[C@@H]2CC[C@@H]1O [Compound 3f]	
		0.76 ± 0.12 nM		46 ± 7.6 nM	60.5		O=C(NCCCCCCCCNC(=O)[C@@H]1[C@H]2C[C@H]3c4[nH]c5ccccc5c4CCN3C[C@@H]2CC[C@@H]1O)[C@@H]1[C@H]2C[C@H]3c4[nH]c5ccccc5c4CCN3C[C@@H]2CC[C@@H]1O [Compound 3g]	
		0.39 ± 0.08 nM		18.6 ± 1.6 nM	47.7		O=C(NCCCCCCCCCCNC(=O)[C@@H]1[C@H]2C[C@H]3c4[nH]c5ccccc5c4CCN3C[C@@H]2CC[C@@H]1O)[C@@H]1[C@H]2C[C@H]3c4[nH]c5ccccc5c4CCN3C[C@@H]2CC[C@@H]1O [Compound 3i]	
